Assay results published in patent US9512128B2 (BAYER CROPSCIENCE AG, priority 2012, dated 2016).

Key:
[1] = system: green peach aphid (Myzus persicae); test: Myzus persicae spray test (MYZUPE); type: in vivo; conditions: application rate 500 g/ha, after 6 days, Chinese cabbage leaf discs
Protocol: 1. Myzus persicae Spray Test (MYZUPE)
• Solvents: 78 parts by weight of acetone • 1.5 part by weight of dimethylformamide • Emulsifier: 0.5 part by weight of alkylaryl polyglycol ether
To produce a suitable preparation of active compound, 1 part by weight of active compound is mixed with the stated amounts of solvents and emulsifier, and the concentrate is diluted with emulsifier-containing water to the desired concentration.
Discs of Chinese cabbage leaves (Brassica pekinensis) infested by all stages of the green peach aphid (Myzus persicae) are sprayed with an active compound preparation of the desired concentration.
After 6 days, the efficacy in % is determined. 100% here means that all of the aphids have been killed; 0% means that no aphids have been killed.

[2] = system: greenhouse red spider mite (Tetranychus urticae); test: Tetranychus urticae spray test, OP-resistant (TETRUR); type: in vivo; conditions: application rate 500 g/ha, after 6 days, bean leaf discs
Outline: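 Bean leaf discs infested with all stages of an OP-resistant strain are sprayed with compound in acetone/DMF with alkylaryl polyglycol ether emulsifier, diluted in water; % mortality after 6 days (100% = all mites killed).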

[3] = system: cattle ticks (Boophilus microplus); test: Boophilus microplus injection test (BOOPMI Inj); type: in vivo; conditions: 20 μg/animal, injection into the abdomen, assessed after 7 days
Protocol: 6. Boophilus microplus Injection Test (BOOPMI Inj)
• Solvent: dimethyl sulphoxide
To produce a suitable preparation of active compound, 10 mg of active compound are mixed with 0.5 ml of solvent, and the concentrate is diluted with solvent to the desired concentration.
1 μl of the active compound solution is injected into the abdomen of 5 fed adult female cattle ticks (Boophilus microplus). The animals are transferred into dishes and kept in a climate-controlled room.
The activity is assessed after 7 days by laying of fertile eggs. Eggs whose fertility is not visible from the outside are stored in a climate-controlled cabinet until the larvae hatch after about 42 days. An efficacy of 100% means that none of the ticks has laid any fertile eggs; 0% means that all eggs are fertile.

[4] = log P by HPLC on reversed-phase columns (C 18), EEC directive 79/831 Annex V.A8; type: physicochemical
Outline: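 Measured by reversed-phase C18 HPLC (LC-MS) with a linear 10→95% acetonitrile gradient. Acidic: pH 2.7, 0.1% formic acid. Neutral: pH 7.8, 0.001 M ammonium bicarbonate.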

[5] = system: southern root-knot nematode (Meloidogyne incognita); test: Meloidogyne incognita test (MELGIN); type: in vivo; conditions: application rate 20 ppm, after 14 days, lettuce
Outline: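 Compound in acetone diluted with water, added to sand with M. incognita egg/larvae suspension and lettuce seeds. Root galls assessed after 14 days; effect in % where 100% means no galls and 0% equals untreated control.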

| Structure (SMILES) | efficacy in % (aphids killed) [1] | efficacy in % (spider mites killed) [2] | efficacy in % (laying of fertile eggs) [3] | logP[a] ([4]; method [a]) | logP[b] ([4]; method [b]) | nematicidal effect in % (formation of galls) [5] |
| --- | --- | --- | --- | --- | --- | --- |
| Cc1cc(F)c(-n2cnc3nn(C)c(C)c3c2=O)cc1[S+]([O-])CC(F)(F)F (stereo not drawn) [Compound 172] | 90% | 90% | 100% | – | – | – |
| CCn1ncc2c(=O)n(-c3cc(SCC(F)(F)F)c(C)cc3F)c(C)nc21 [Compound 125] | 100% | 100% | – | – | – | – |
| CCn1cnc2c(=O)n(-c3cc(SCC(F)(F)F)c(C)cc3F)cnc21 [Compound 53] | 90% | 90% | – | 2.46 | 2.41 | 100% |
| Cc1cc(F)c(-n2c(C)nc3nn(C)cc3c2=O)cc1[S+]([O-])CC(F)(F)F (stereo not drawn) [Compound 175] | 100% | 100% | – | – | – | – |
